The test system of data set [1] is primary mouse mesenchymal stem cells. Put plainly: Meflin gene (Islr) expression by qPCR after retinoid treatment (Example 4). It is filed as cell-based. Conditions: relative expression level, control (DMSO-treated cells) = 1, retinoid 1 μM, 48 hours. The protocol: (§1) The primary human pancreatic stellate cells used are those provided by Dr. Masamune, Tohoku University. The primary mouse mesenchymal stem cells used are those purchased from Cyagen Co., Ltd. Both pancreatic stellate cells and mesenchymal stem cells are considered to be the origin of CAF. As the retinoid, the retinoid contained in SCREEN-WELL Nuclear Receptor ligand library (ENZO) is used. DMEM+10% FBS is used as a culture medium. The cells are seeded in a collagen-coated dish and cultured until they are 100% confluent, and various retinoids are added to a concentration of 1 μM. After 48 hours, cells are harvested, RNA is extracted using RNeasyPLUS KIT (QIAGEN), and cDNA is synthesized using ReverseTra Ace qPCR RT Master Mix (TOYOBO). The expression level of the meflin gene (ISLR and Islr) is measured by qPCR using the Gene expression assay (Thermo Fisher scientific).
A general note: Real-time PCR tracks product formation cycle by cycle.

For data set [2], the system named is primary human pancreatic stellate cells. Put plainly: Meflin gene (ISLR) expression by qPCR after retinoid treatment (Example 4). It is filed as cell-based. Conditions: relative expression level, control (DMSO-treated cells) = 1, retinoid 1 μM, 48 hours. The protocol: as §1
The subject of data set [3] is mouse pancreatic cancer cells mT5. Nature of the data set: AM80 alone in mice subcutaneously transplanted with mT5 (Example 6). It is filed as in vivo. The source says:
Pancreatic cancer cell mT5, which was distributed by Dr. David Tuveson, Cold Spring Harbor Laboratory, is used. mT5 is a pancreatic cancer cell established from a pancreatic tumor developed in KPC mice, which is a pancreatic cancer spontaneous onset model (Organoid models of human and mouse ductal pancreatic cancer. Cell. 2015 Jan. 15; 160 (1-2)): 324-38. Doi: 10.1016/j. cell. 2014.12.021. Epub 2014 Dec. 31.).
C57BL/6J female mice are subcutaneously transplanted with mouse pancreatic cancer cells mT5 (1.0×10^6 cells). Eight days later (Day 8), AM80 is orally administered for 15 days to mice in which tumor formation was confirmed. Depending on the dose of AM80 (0.1 mg/kg/day, 0.5 mg/kg/day, 1 mg/kg/day and 3 mg/kg/day), a total of 5 groups, namely, four AM80 administration groups and a control group (DMSO administration) are set up (n=5 in each group). Body weight and tumor volume are measured before the start of the AM80 administration (Day 8), Day 11, Day 15, Day 18 and Day 22. On Day 22, mice are euthanized, tumors are removed to prepare tissue specimens, the in situ hybridization (ISH) is performed to detect the expression of the meflin gene (Islr) and the actin gene (Acta2), and then the number of positive signals is counted for each. Furthermore, a tissue specimen of the tumor is prepared, immunostaining is performed with an anti-CD31 antibody to stain CD31, which is a marker for vascular endothelial cells, and the vascular lumen area is measured.

For data set [4], the system named is primary mouse mesenchymal stem cells. Put plainly: Islr, Acta2, Col1a1 and Col3a1 expression by qPCR after retinoid treatment (Example 5). It is filed as cell-based. Conditions: vs control (DMSO), 48 hours after addition; for expression level of meflin gene (Islr): FIG. 27(A); for expression level of actin gene (Acta2): FIG. 27(B); for expression level of type I collagen gene (Col1a1): FIG. 27(C); for expression level of type III collagen gene (Col3a1): FIG. 27(D). The protocol: as §1
The same method is performed as in the experiment using the primary mouse mesenchymal stem cells in Example 4. ATRA, AM80 and AM580 are used as retinoids. The expression levels of the meflin gene (Islr), actin gene (Acta2), type I collagen gene (Col1a1) and type III collagen gene (Col3a1) are measured by qPCR.

Data set [5] deals with mouse pancreatic cancer cells mT5. Put plainly: Collagen arrangement in tumor stroma by second harmonic microscope (Example 16). It is filed as in vivo. Conditions: tamibarotene 3.0 mg/kg oral once a day for 7 days from Day 8; vs control (DMSO); Day 15. The protocol: C57BL/6J female mice are subcutaneously transplanted with mouse pancreatic cancer cells mT5 (1.0×10^6 cells). Eight days later (Day 8), the mice are divided into two groups, a control group and a tamibarotene administration group (AM80 group) to ensure equal tumor volume (n=5 in each group). In the AM80 group, tamibarotene (3.0 mg/kg) is orally administered once a day for 7 days from Day 8. In the control group, DMSO is orally administered instead of tamibarotene. On Day 15, mice are euthanized, and tumors are removed to prepare tissue specimens. Eight to sixteen images are randomly selected from the tumor tissue specimen, the collagen arrangement is measured with a second harmonic microscope, and the curvature (linearity) is analyzed.

For data set [6] the test system is unchanged. Nature of the data set: Tamibarotene and gemcitabine in mice transplanted with mT5 (Example 7). It is filed as in vivo. Conditions: tamibarotene 3.0 mg/kg oral once a day for 17 days from Day 8; gemcitabine 50 mg/kg i.p. Day 15, 18, 21; to Day 24. The protocol: C57BL/6J female mice are subcutaneously transplanted with mouse pancreatic cancer cells mT5 (1.0×10^6 cells). […] In the Gem+AM80 group, tamibarotene (3.0 mg/kg) is orally administered once a day for 17 days from Day 8. In addition, in the Gem group and the Gem+AM80 group, gemcitabine (50 mg/kg) is intraperitoneally administered once each on Day 15, Day 18 and Day 21. In the control group, DMSO is orally administered instead of tamibarotene, and saline is intraperitoneally administered instead of gemcitabine. Tumor volume is measured before start of the AM80 administration (Day 8), Day 12, Day 15, Day 18, Day 21 and Day 24.

Setting [7] is: AM80 3 mg/kg/day vs control group, tumor removed Day 22.

Molecules are shown by their SMILES.

The values that follow come from patent US12521358B2, “Method for selecting cancer patients for whom combination therapy with retinoid and cancer therapeutic agent is effective, and combination medicament with retinoid and cancer therapeutic agent” (RaQualia Pharma Inc., priority 2020, dated 2026).

On to `CC1=C(/C=C/C(C)=C/C=C/C(C)=C/C(=O)O)C(C)(C)CCC1O` (stereo not shown) [4-Hydroxyretinoic acid, 4-hydroxyretinoic acid], for which the results for the “ISLR expression level (mean value)” value in data set [1] and in data set [2] were 1.912 and 3.264, respectively.

In the case of `CC1=C(/C=C/C(C)=C\C=C\C(C)=C\C(=O)O)C(C)(C)CCC1` [9-cis Retinoic acid, 9-cis-retinoic acid], in data set [2], the “ISLR expression level (mean value)” value is listed as 4.894.

In the case of `CC1=C(/C=C/C(C)=C/C=C/C(C)=C\C(=O)O)C(C)(C)CCC1` [13-cis Retinoic, 13-cis-retinoic acid], the “ISLR expression level (mean value)” value in data set [2] worked out at 7.252.

Turning to `CC1(C)CCC(C)(C)c2cc(NC(=O)c3ccc(C(=O)O)cc3)ccc21` [AM80, tamibarotene], in data set [3] (setting [7]), the “number of dots of the Acta2 positive signal per high-magnification field (ISH)” value was “significantly lower”, the “number of dots of the Islr positive signal per high-magnification field (ISH)” value is “significantly higher” and the “vascular lumen area (anti-CD31 immunostaining)” value was “significantly higher”. Further, in data set [3] (AM80 0.1, 0.5, 1 and 3 mg/kg/day oral for 15 days from Day 8, vs control (DMSO), Day 8-22), the tumor volume entry is on record as “does not suppress the growth”. Further, in data set [3] (AM80 0.1-3 mg/kg/day oral for 15 days), the body weight result is reported as “does not affect the body weight”. For the same compound, in data set [4], the “expression level of meflin gene (Islr)” value is “high”, the “expression level of actin gene (Acta2)” value is “low”, the “expression level of type I collagen gene (Col1a1)” value (“expression level … (Col1a1)” below) was “low” and the “expression level of type III collagen gene (Col3a1)” value (shortened to “expression level … (Col3a1)”) is listed as “low”. In data set [5], the “curvature (linearity) of collagen” value is recorded as “reducing the linearity of collagen”.

`CC1(C)CCC(C)(C)c2cc(C(=O)Nc3ccc(C(=O)O)cc3)ccc21` [AM580]: the “ISLR expression level (mean value)” value in data set [1] was 5.295. In data set [4], the “expression level of meflin gene (Islr)” value was “high”, the “expression level of actin gene (Acta2)” value was “low”, the “expression level … (Col1a1)” value is recorded as “low” and the “expression level … (Col3a1)” value is given as “low”. In addition, the “ISLR expression level (mean value)” value in data set [2] was found to be 3625.326.

As to `CC1=C(/C=C/C(C)=C/C=C/C(C)=C/C(=O)O)C(C)(C)CCC1` [ATRA, all-trans retinoic acid], in data set [1], the “ISLR expression level (mean value)” value is on record as 1.693. In addition, in data set [4], the “expression level of meflin gene (Islr)” value is given as “high”, the “expression level of actin gene (Acta2)” value is “low”, the “expression level … (Col1a1)” value is “low” and the “expression level … (Col3a1)” value is reported as “low”. The “ISLR expression level (mean value)” value in data set [2] is recorded as 217.5011.

Turning to `COc1cc(C)c(/C=C/C(C)=C/C=C/C(C)=C/C(=O)O)c(C)c1C` [Acitretin], the “ISLR expression level (mean value)” value in data set [1] is recorded as 7.659; in data set [2], 47.59.

Take `COc1ccc(-c2ccc3cc(C(=O)O)ccc3c2)cc1C12CC3CC(CC(C3)C1)C2` [Adapalene, adapalene]: the “ISLR expression level (mean value)” value in data set [1] turned out to be 5.428.

With `CC(C)(c1ccc(OCC2CO2)cc1)c1ccc(OCC2CO2)cc1` (stereo not shown) [BADGE, bisphenol A diglycidyl ether], in data set [2], the “ISLR expression level (mean value)” value worked out at 5089.576.

Regarding `Nc1ccn([C@@H]2O[C@H](CO)[C@@H](O)C2(F)F)c(=O)n1` [Gem, gemcitabine], the “tumor growth (tumor volume)” value in data set [6] was “more significantly suppresses the tumor growth than the control group”.

As to `CC(=O)OC/C=C(C)/C=C/C=C(C)/C=C/C1=C(C)CCCC1(C)C` [Retinyl acetate, retinyl acetate], the “ISLR expression level (mean value)” value in data set [2] was 3.29.

Regarding `C/C(=C\c1ccc(C(=O)O)cc1)c1ccc2c(c1)C(C)(C)CCC2(C)C` [TTNPB], the “ISLR expression level (mean value)” value in data set [1] is recorded as 5.183; in data set [2], 15.94.
